“And” between values parts separate entries of the source, which are not always exact repeats. Equal entries are not always repeated. Where two headings read alike, the source gives them in different places.
Assays:
[1] = test system: hairy cell leukemia (HCL); conditions: cited from earlier work
[2] = aqueous solution, cited from earlier work
[3] = test system: lymphocytes; conditions: same concentration of dCF, absence of dAdo, after 4 days of exposure; cited from earlier work
[4] = intravenous; cited from earlier work
[5] = for times safer than the oncology dose: 40 grams each day, 7% penetration
Excerpt: (§1) Systemic absorption is a concern, because of the potential for serious adverse events, such as lymphopenia and renal toxicity. At oncology doses, these adverse reactions are usually minimized, but the therapeutic index is narrow. Another factor that plays a role in the safety of the formulation is the amount of product administered each day. Approximately 4 grams, 12 grams, and 40 grams of a topical formulation are estimated to cover 10%, 30%, and 100% of the body surface area.
as §1
as §1, with “Calculations of safety margins have been performed, based upon this assumption and the known toxicity profile of F-Ara-A when administered IV for oncology indications. Systemic” for “Systemic”
as §1

[6] = Calculated concentration in the skin assuming 7% penetration
[7] = test system: U-937 cells; conditions: Niiitsu et al 2000; cited from earlier work
[8] = test system: U-937 cells; assay: Cytokine secretion by ELISA (Example 31); type: cell-based; conditions: drug 1 μM; for Cytokine Secretion IL-6 pg/ml Mean of 3 Replicates: LPS-activated cells
Protocol: In a search for a topical agent that can locally deplete levels of T-cells in the skin, apoptotic compounds were evaluated for their mechanisms of action. The ability that […] induce apoptosis by the same mechanisms was examined by cytokine secretion. […] Caspase-3 and cytokine (IL-2, IL-6, TNF, and IFN-γ) levels were determined and compared to controls at 23 and 46 hours. FdA was incorporated to evaluate the effect of the halogen group and Ara-C for its overlapping mechanisms of action. […] At the end of the treatment period, the cells were harvested and Caspase-3 induction was determined using a flow-cytometry-based method to quantify the percentage of cells that induced Caspase-3. The level of apoptosis is expressed as “% FITC shift”. Cytokine secretion (IL-2, IL-6, TNF, and IFN-γ) was measured at the same time by ELISA and is expressed in pg/mL. […]

[9] = test system: Jurkat cells; assay: Cytokine secretion by ELISA (Example 31); type: cell-based; conditions: drug 1 μM; for Cytokine Secretion IL-2 pg/ml Mean of 3 Replicates: PHA-activated cells
Protocol: In a search for a topical agent that can locally deplete levels of T-cells in the skin, apoptotic compounds were evaluated for their mechanisms of action. The ability that […] induce apoptosis by the same mechanisms was examined by cytokine secretion. […] At the end of the treatment period, the cells were harvested and Caspase-3 induction was determined using a flow-cytometry-based method to quantify the percentage of cells that induced Caspase-3. The level of apoptosis is expressed as “% FITC shift”. Cytokine secretion (IL-2, IL-6, TNF, and IFN-γ) was measured at the same time by ELISA and is expressed in pg/mL.

[10] = biological target: dGK (Homo sapiens, UniProt Q16854); conditions: read-out: Km for dGK; cited from earlier work
dGK, sequence (Q16854 40-277, species assumed): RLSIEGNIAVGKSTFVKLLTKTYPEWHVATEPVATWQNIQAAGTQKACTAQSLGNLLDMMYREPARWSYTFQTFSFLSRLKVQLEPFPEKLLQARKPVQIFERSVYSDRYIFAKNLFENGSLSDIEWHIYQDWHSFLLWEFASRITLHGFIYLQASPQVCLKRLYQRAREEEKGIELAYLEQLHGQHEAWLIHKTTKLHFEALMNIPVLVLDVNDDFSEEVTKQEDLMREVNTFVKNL

[11] = test system: monocytes; conditions: read-out: concentration that causes 50% inhibition of monocytes; cited from earlier work
[12] = test system: chronic lymphocytic leukemia (CLL); conditions: 25 mg/m^2 every day for 5 days; cited from earlier work

Q: What does the source list for `OC[C@H]1O[C@@H](n2cnc3c2NC=NC[C@H]3O)C[C@@H]1O` [dCF, (R)-3-(2-Deoxy-β-D-erythro-pentofuranosyl)-3,6,7,8-tetrahydroimidazo[4,5-d][1,3]diazepin-8-ol]?
A: time to complete remissions, on average ([1]; 4 mg/m^2 every 14 days): 6 months; t50 ([2]; pH 1, 25° C.): 5.6 min; t50 ([2]; pH 5.0, 25° C.): about 3.5 days; t50 ([2]; pH 7.5, 25° C.): approximately 70 days; t50 ([2]; pH 12.6, 25° C.): approximately 45 days; growth inhibition [3]: 0-10%; drug recovered in the urine [4]: Approximately 96%; safety margin (times safer than the oncology dose) [5]: 1.8; Concentration in the skin assuming 7% penetration ([6]; topical concentration 0.00001%): 30 nM; Concentration in the skin assuming 7% penetration ([6]; topical concentration 0.00005%): 130 nM; Concentration in the skin assuming 7% penetration ([6]; topical concentration 0.0001%): 260 nM; Concentration in the skin assuming 7% penetration ([6]; topical concentration 0.001%): 2610 nM; Concentration in the skin assuming 7% penetration ([6]; topical concentration 0.01%): 26090 nM; Concentration in the skin assuming 7% penetration ([6]; topical concentration 0.1%): 260930 nM

Q: Which results are given for `Nc1nc(Cl)nc2c1ncn2[C@H]1C[C@H](O)[C@@H](CO)O1` [CdA, 2-chloro-2′-deoxyadenosine]?
A: concentration toxic to U-937 cells on its own [7]: 0.1 µM; time to responses and complete remissions ([1]; 3.6 mg/m^2 every day for 7 days): ≤ 1 week; Cytokine Secretion IL-6 pg/ml Mean of 3 Replicates ([8]; 23 hr): 7 pg/mL; effect on suppressing the production of IL-6 ([8]; 46 hours): little effect; Cytokine Secretion IL-6 pg/ml Mean of 3 Replicates ([8]; 46 hr): 8 pg/mL and 7 pg/mL; Cytokine Secretion IL-2 pg/ml Mean of 3 Replicates ([9]; 23 hr): 51 pg/mL; Cytokine Secretion IL-2 pg/ml Mean of 3 Replicates ([9]; 46 hr): 105 pg/mL; IL-2 concentration ([9]; Jurkat cells activated by PHA, 46 hours): 105 pg/mL; safety factor ([5]; 0.00005%, 30% of body surface area (10.8 grams/day), 7% systemic absorption): 17,142; times safer than the oncology dose ([5]; topical 0.00001%): 23000; safety margin (times safer than the oncology dose) ([5]; topical 0.1% (1.0 mg/g), 10% BSA (4 grams per day), 7% systemic absorption): 23; systemic exposure per day ([5]; topical 0.1% (1.0 mg/g), 10% BSA (4 grams), 7% systemic absorption): 0.28 mg; safety margin (times safer than the oncology dose) ([5]; topical 0.1% (1.0 mg/g), 30% BSA (12 grams per day), 7% systemic absorption): 7.7; systemic exposure per day ([5]; topical 0.1% (1.0 mg/g), 30% BSA (12 grams), 7% systemic absorption): 0.84 mg; safety margin (times safer than the oncology dose) ([5]; topical 0.1% (1.0 mg/g), 100% BSA (40 grams per day), 7% systemic absorption): 2.3; systemic exposure per day ([5]; topical 0.1% (1.0 mg/g), 100% BSA (40 grams), 7% systemic absorption): 2.8 mg; Km [10]: 80 µM; concentration achieved in the skin assuming 7% penetration ([6]; topical 0.00001% (0.0001 mg/g)): approximately 25 nM; Concentration in the skin assuming 7% penetration ([6]; topical concentration 0.00001%): 20 nM; Concentration in the skin assuming 7% penetration ([6]; topical concentration 0.00005%): 120 nM; Concentration in the skin assuming 7% penetration ([6]; topical concentration 0.0001%): 250 nM; Concentration in the skin assuming 7% penetration ([6]; topical concentration 0.001%): 2450 nM; Concentration in the skin assuming 7% penetration ([6]; topical concentration 0.01%): 24500 nM; Concentration in the skin assuming 7% penetration ([6]; topical concentration 0.1%): 245010 nM

Q: Which “times safer than the oncology dose” value ([5]; topical 0.0002%) does the source give for `Nc1nc(F)nc2c1ncn2[C@@H]1O[C@H](CO)C(O)C1O` (stereo partly drawn) [F-Ara-A, 2-fluoroadenine-9β-D-Arabinofuranoside] here?
A: 8036

Q: What about the “safety margin (times safer than the oncology dose)” value ([5]; topical 1.0% (10 mg/g), 10% BSA (4 grams per day), 7% systemic absorption) of the same compound?
A: 16

Q: And the “systemic exposure per day” value ([5]; topical 1.0% (10 mg/g), 10% BSA (4 grams), 7% systemic absorption)?
A: 2.8 mg

Q: What about the “safety margin (times safer than the oncology dose)” value ([5]; topical 1.0% (10 mg/g), 30% BSA (12 grams per day), 7% systemic absorption) of the same compound?
A: 5.4

Q: And the “systemic exposure per day” value ([5]; topical 1.0% (10 mg/g), 30% BSA (12 grams), 7% systemic absorption)?
A: 8.4 mg

Q: What about the “safety margin (times safer than the oncology dose)” value ([5]; topical 1.0% (10 mg/g), 100% BSA (40 grams per day), 7% systemic absorption) of the same compound?
A: 1.6

Q: And the “systemic exposure per day” value ([5]; topical 1.0% (10 mg/g), 100% BSA (40 grams), 7% systemic absorption)?
A: 28 mg

Q: What about the IC50 [11] of the same compound?
A: 500 nM

Q: And the “time to complete remissions, on average” value [12]?
A: 3 months

Q: What about the “concentration achieved in the skin assuming 7% penetration” value ([6]; topical 0.0002% (0.002 mg/g)) of the same compound?
A: approximately 0.5 μM

Reference: US20070142317A1, “Topical composition for treatment of skin disorders” (QLT USA, Inc., priority 2003, published 2007)
